The compounds below were run against c-Met (Homo sapiens, UniProt P08581) (assay: Ki determination for the inhibition of c-Met kinase activity (standard coupled enzyme system)). Conditions: not given.
Sequence of c-Met (P08581 25-1390): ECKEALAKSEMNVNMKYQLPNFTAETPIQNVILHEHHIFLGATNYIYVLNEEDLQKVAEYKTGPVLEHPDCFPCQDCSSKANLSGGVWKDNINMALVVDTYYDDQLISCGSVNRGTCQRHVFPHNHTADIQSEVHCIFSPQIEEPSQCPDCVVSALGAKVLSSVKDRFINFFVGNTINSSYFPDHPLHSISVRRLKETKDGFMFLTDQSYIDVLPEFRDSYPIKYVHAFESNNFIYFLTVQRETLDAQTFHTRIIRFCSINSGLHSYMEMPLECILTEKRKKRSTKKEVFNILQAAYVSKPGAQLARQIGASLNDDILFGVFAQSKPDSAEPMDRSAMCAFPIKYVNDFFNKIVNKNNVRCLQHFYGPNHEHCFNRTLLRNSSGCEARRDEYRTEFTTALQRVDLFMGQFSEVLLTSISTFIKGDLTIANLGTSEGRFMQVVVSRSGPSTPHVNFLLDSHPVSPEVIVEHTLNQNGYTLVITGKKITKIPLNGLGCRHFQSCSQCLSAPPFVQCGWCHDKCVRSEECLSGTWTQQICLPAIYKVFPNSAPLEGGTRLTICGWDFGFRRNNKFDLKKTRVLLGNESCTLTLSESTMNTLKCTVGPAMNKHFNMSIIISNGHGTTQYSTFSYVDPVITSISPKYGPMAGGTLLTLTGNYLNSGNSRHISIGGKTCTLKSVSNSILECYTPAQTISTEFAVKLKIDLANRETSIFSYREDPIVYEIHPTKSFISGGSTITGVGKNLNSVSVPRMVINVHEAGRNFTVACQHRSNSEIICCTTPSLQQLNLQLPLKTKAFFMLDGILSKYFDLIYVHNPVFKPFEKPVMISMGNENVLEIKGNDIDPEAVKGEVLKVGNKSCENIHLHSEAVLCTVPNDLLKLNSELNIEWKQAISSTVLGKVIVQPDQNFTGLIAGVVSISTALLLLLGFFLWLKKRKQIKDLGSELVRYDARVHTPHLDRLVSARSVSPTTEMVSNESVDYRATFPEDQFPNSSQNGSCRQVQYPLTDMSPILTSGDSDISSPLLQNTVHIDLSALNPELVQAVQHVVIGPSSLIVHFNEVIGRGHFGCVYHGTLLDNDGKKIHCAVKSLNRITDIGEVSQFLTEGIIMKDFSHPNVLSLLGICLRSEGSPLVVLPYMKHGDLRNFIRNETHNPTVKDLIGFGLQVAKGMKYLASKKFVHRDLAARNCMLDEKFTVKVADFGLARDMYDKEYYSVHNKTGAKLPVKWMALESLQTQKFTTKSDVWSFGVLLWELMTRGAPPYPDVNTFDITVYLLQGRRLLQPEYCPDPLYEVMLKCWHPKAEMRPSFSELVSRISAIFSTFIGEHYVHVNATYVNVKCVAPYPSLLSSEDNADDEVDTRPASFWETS
Format: biochemical
Protocol: Ki Determination for the Inhibition of c-Met
Reactions were carried out in a solution containing 100 mM HEPES (pH 7.5), 10 mM MgCl2, 25 mM NaCl, 300 μM NADH, 1 mM DTT, and 1.5% DMSO. Final substrate concentrations in the assay were 200 μM ATP (Sigma Chemicals, St Louis, Mo.) and 10 μM polyGluTyr (Sigma Chemical Company, St. Louis). Reactions were carried out at 30° C. and 80 nM c-Met. Final concentrations of the components of the coupled enzyme system were 2.5 mM phosphoenolpyruvate, 300 μM NADH, 30 μg/ml pyruvate kinase and 10 μg/ml lactate dehydrogenase.
An assay stock buffer solution was prepared containing all of the reagents listed above with the exception of ATP and a test compound of the present invention. […] The reaction was initiated by the addition of 20 μL of ATP (final concentration 200 μM). Rates of reaction were obtained using a Molecular Devices Spectramax plate reader (Sunnyvale, Calif.) over 10 minutes at 30° C. The Ki values were determined from the rate data as a function of inhibitor concentration.
In the case of `C[C@@H](c1ccc(OP(=O)(O)O)cc1)c1nnc2sc(Nc3cccc(Cl)c3)nn12` [Compound 170], the Ki is reported as 100 to 2000 nM.

Same assay, conditions: coupled enzyme system, 200 μM ATP, 80 nM c-Met, 30° C.; read-out: c-Met Ki
Compound `COCCC(=O)N[C@@H]1CCCC[C@@H]1Nc1ccc2nnc([C@@H](C)c3ccc(O)cc3)n2n1` [Compound 445] has a Ki of over 2000 nM.
`Fc1ccc(Cc2nnc3n2N=C(c2ccccc2)CS3)cc1` [Compound 527] showed a Ki of over 2000 nM.
`OCCc1cccc(Nc2ccc3nnc(Cc4ccc(O)c(Cl)c4)n3n2)c1` [Compound 300] showed a Ki of 100 to 2000 nM.
With `CC(Cn1cnc2ccccc21)c1nnc2ccc(Nc3cccc(Cl)c3)nn12` (stereo not shown) [Compound 421] the Ki was over 2000 nM.
In the case of `CC(=O)Nc1ccc2nnc(Cc3ccc(O)cc3)n2n1` [Compound 396], the Ki is reported as over 2000 nM.
`C[C@@H](Nc1ccc2nnc(Cc3ccc(O)cc3)n2n1)C(C)(C)C` [Compound 309] showed a Ki of 100 to 2000 nM.
In the case of `Nc1cccc(Cc2nnc3ccc(Nc4cccc(Cl)c4)nn23)c1` [Compound 317], the Ki is reported as over 2000 nM.
`CN(C)S(=O)(=O)Nc1cccc(Cc2nnc3ccc(Nc4cccc(Cl)c4)nn23)c1` [Compound 404] gave a Ki of over 2000 nM.
For `Nc1ncnc2c1ccn2Cc1nnc2ccc(Nc3cccc(Cl)c3)nn12` [Compound 452], the Ki was 100 to 2000 nM.
`Clc1cccc(Nc2ccc3nnc(CNc4n[nH]c5ncccc45)n3n2)c1` [Compound 519] was tested, and the Ki was under 100 nM.
Work on `C[C@H](CO)Nc1ccc2nnc(Cc3ccc(O)cc3)n2n1` [Compound 303] yielded a Ki of 100 to 2000 nM.
`COc1ccc(OC)c(NCc2nnc3ccc(Nc4cccc(Cl)c4)nn23)c1` [Compound 353] gave a Ki of over 2000 nM.
`Nc1ccc(Cc2nnc3ccc(Nc4cccc(Cl)c4)nn23)cc1` [Compound 456] showed a Ki of over 2000 nM.
In the case of `NC(=O)c1ccc(NCc2nnc3ccc(Nc4cccc(Cl)c4)nn23)cc1` [Compound 467], the Ki is reported as 100 to 2000 nM.
`Fc1ccc2[nH]cc(Cc3nnc4ccc(Nc5cccc(Cl)c5)nn34)c2c1` [Compound 459] showed a Ki of over 2000 nM.
In the case of `CC(C)(C)Nc1ccc2nnc(Cc3ccc(O)cc3)n2n1` [Compound 401], the Ki is reported as 100 to 2000 nM.
`Fc1ccc(NCc2nnc3ccc(Nc4cccc(Cl)c4)nn23)cc1F` [Compound 341] was tested, and the Ki was over 2000 nM.
`CCOc1cccc(NCc2nnc3ccc(Nc4cccc(Cl)c4)nn23)c1` [Compound 339] was tested, and the Ki was over 2000 nM.
Compound `COc1ccc(NCc2nnc3ccc(Nc4cccc(Cl)c4)nn23)c(O)c1` [Compound 351] has a Ki of 100 to 2000 nM.
For `C[C@@H](c1ccc(O)cc1)c1nnc2ccc(NC3CCCC(C(F)(F)F)C3)nn12` (stereo partly shown) [Compound 521], the Ki was under 100 nM.
`CCc1cccc(Nc2ccc3nnc(Cc4ccc(OC)cc4)n3n2)c1` [Compound 291] was tested, and the Ki was 100 to 2000 nM.
For `Oc1ccc2c(ccn2Cc2nnc3ccc(Nc4cccc(Cl)c4)nn23)c1` [Compound 435], the Ki was over 2000 nM.
In the case of `CC(=O)N[C@H]1CCCC[C@H]1Nc1ccc2nnc([C@@H](C)c3ccc(O)cc3)n2n1` [Compound 446], the Ki is reported as 100 to 2000 nM.
`Oc1ccc(CCc2nnc3ccc(Nc4cccc(Cl)c4)nn23)cc1` [Compound 366] showed a Ki of 100 to 2000 nM.
With `Clc1cccc(Nc2ccc3nnc(COc4ccc5c(c4)OCO5)n3n2)c1` [Compound 503] the Ki was over 2000 nM.
In the case of `CC(=O)c1cn(Cc2nnc3ccc(Nc4cccc(Cl)c4)nn23)c2ncccc12` [Compound 480], the Ki is reported as over 2000 nM.
In the case of `COc1ccc(Cc2nnc3ccc(Nc4cccc(C#N)c4)nn23)cc1` [Compound 287], the Ki is reported as under 100 nM.
With `Clc1cccc(Nc2ccc3nnc(CSc4ccccc4Cl)n3n2)c1` [Compound 389] the Ki was over 2000 nM.
`COC(=O)c1c(O)cccc1NCc1nnc2ccc(Nc3cccc(Cl)c3)nn12` [Compound 332] was tested, and the Ki was 100 to 2000 nM.
With `Clc1cccc(Nc2ccc3nnc(Cn4cncn4)n3n2)c1` [Compound 517] the Ki was 100 to 2000 nM.
In the case of `CC(C)C(=O)N1CCCC(Nc2ccc3nnc(Cc4ccc(O)cc4)n3n2)C1` (stereo not shown) [Compound 327], the Ki is reported as over 2000 nM.
`COc1cccc(Cc2nnc3ccc(Nc4cccc(Cl)c4)nn23)c1` [Compound 439] gave a Ki of 100 to 2000 nM.
Compound `Clc1cccc(Nc2ccc3nnc(CCc4cccnc4)n3n2)c1` [Compound 368] has a Ki of over 2000 nM.
For `c1ccc(C2=Nn3c(Cc4ccncc4)nnc3SC2)cc1` [Compound 529], the Ki was over 2000 nM.
`Fc1ccc(OCc2nnc3ccc(Nc4cccc(Cl)c4)nn23)cn1` [Compound 453] was tested, and the Ki was 100 to 2000 nM.
`O=[N+]([O-])c1ccc(Cc2nnc3ccc(Nc4cccc(Cl)c4)nn23)cc1` [Compound 475] gave a Ki of over 2000 nM.
In the case of `CC(c1ccc(O)cc1)c1nnc2n1N=C(c1ccccc1)CS2` (stereo not shown) [Compound 525], the Ki is reported as under 100 nM.
Compound `C[C@@H](c1ccc(O)cc1)c1nnc2ccc(Nc3ccnn3C)nn12` [Compound 505] has a Ki of 100 to 2000 nM.
For `Clc1cccc(Nc2ccc3nnc(Cc4cc5c(cc4Cl)OCO5)n3n2)c1` [Compound 504], the Ki was 100 to 2000 nM.
`CCOC(=O)c1sc(Nc2ccc3nnc([C@@H](C)c4ccc(O)cc4)n3n2)nc1C` [Compound 513] was tested, and the Ki was 100 to 2000 nM.
`N#CCc1ccc(OCc2nnc3ccc(Nc4cccc(Cl)c4)nn23)cc1` [Compound 382] gave a Ki of over 2000 nM.

Same assay, conditions: coupled enzyme system, 200 μM ATP, 10 μM polyGluTyr, 80 nM c-Met, 30° C.; read-out: c-Met Ki
`Oc1ccc(Cc2nnc3sc(Nc4cc(Cl)cc(Cl)c4)nn23)cc1` [Compound 50] showed a Ki of under 100 nM.
Work on `Oc1ccc(Cc2nnc3sc(Nc4cccc(F)c4F)nn23)cc1F` [Compound 99] yielded a Ki of 100 to 2000 nM.
`N#Cc1cccc(Nc2nn3c(Cc4ccc(O)cc4)nnc3s2)c1` [Compound 18] showed a Ki of over 2000 nM.
`Oc1ccc(Cc2nnc3ccc(N[C@H]4CC[C@H](O)CC4)nn23)cc1` [Compound 272] showed a Ki of 100 to 2000 nM.
`Oc1ccc(Cc2nnc3ccc(NCCCn4ccnc4)nn23)cc1` [Compound 180] gave a Ki of 100 to 2000 nM.
Compound `Oc1ccc(Cc2nnc3ccc(NCC4CCCO4)nn23)cc1` (stereo not shown) [Compound 187] has a Ki of 100 to 2000 nM.
`Oc1ccc(Cc2nnc3sc(NCc4cccnc4)nn23)cc1` [Compound 9] gave a Ki of 100 to 2000 nM.
Work on `Oc1ccc(Cc2nnc3ccc(NC4CCCCC4)nn23)cc1` [Compound 214] yielded a Ki of under 100 nM.
`Oc1ccc(Cc2nnc3ccc(-c4ccccc4)nn23)cc1F` [Compound 213] was tested, and the Ki was 100 to 2000 nM.
For `Oc1ccc(Cc2nnc3sc(Nc4cccc(Cl)c4F)nn23)cc1F` [Compound 130], the Ki was 100 to 2000 nM.
For `c1csc(-c2nn3c(Cc4ccc5c(c4)OCO5)nnc3s2)c1` [Compound 2, 3-((benzo[d][1,3]dioxol-5-yl)methyl)-6-(thiophen-2-yl)-[1,2,4]triazolo[3,4-b][1,3,4]thiadiazole], the Ki was 100 to 2000 nM.
In the case of `Oc1ccc(Cc2nnc3sc(NCCN4CCOCC4)nn23)cc1` [Compound 15], the Ki is reported as over 2000 nM.
In the case of `COc1ccc(CNc2ccc3nnc(Cc4ccc(O)cc4)n3n2)cc1` [Compound 267], the Ki is reported as 100 to 2000 nM.
For `Oc1ccc(Cc2nnc3ccc(N4CCC[C@H]4CN4CCCC4)nn23)cc1` [Compound 200], the Ki was over 2000 nM.
`C[C@H](c1ccc(O)cc1)c1nnc2sc(Nc3ccc(Cl)cc3)nn12` [Compound 118] showed a Ki of 100 to 2000 nM.
For `OCc1cccc(Nc2ccc3nnc(Cc4ccc(O)c(F)c4)n3n2)c1` [Compound 260], the Ki was 100 to 2000 nM.
With `COc1ccc([C@H](C)c2nnc3sc(Nc4cccc(Cl)c4)nn23)cc1` [Compound 157] the Ki was 100 to 2000 nM.
`CC(C)[C@@H](N)C(=O)Oc1ccc([C@H](C)c2nnc3sc(Nc4cccc(F)c4)nn23)cc1` [Compound 165] showed a Ki of under 100 nM.
`CCC(C)c1ccc(Nc2ccc3nnc(Cc4ccc(O)cc4)n3n2)cc1` (stereo not shown) [Compound 183] gave a Ki of 100 to 2000 nM.
`Oc1cccc(Cc2nnc3sc(Nc4cccc(F)c4Cl)nn23)c1` [Compound 110] gave a Ki of 100 to 2000 nM.
In the case of `c1csc(Cc2nn3c(Cc4ccc5c(c4)OCO5)nnc3s2)c1` [Compound 49], the Ki is reported as over 2000 nM.
With `CNC(=O)c1cccc(Nc2ccc3nnc(Cc4ccc(O)c(Cl)c4)n3n2)c1` [Compound 234] the Ki was 100 to 2000 nM.
With `CC(c1ccc(O)cc1)c1nnc2sc(Nc3cccc(Cl)c3)nn12` (stereo not shown) [Compound 63] the Ki was under 100 nM.
Work on `O=C(Nc1ccccc1)Nc1nn2c(Cc3ccc(O)cc3)nnc2s1` [Compound 113] yielded a Ki of over 2000 nM.
With `Fc1c(Cl)cccc1Nc1nn2c(Cc3ccc4c(c3)OCO4)nnc2s1` [Compound 126] the Ki was 100 to 2000 nM.
Compound `COc1ccccc1Nc1nn2c(Cc3ccc(O)c(Cl)c3)nnc2s1` [Compound 31] has a Ki of 100 to 2000 nM.
Compound `Cc1cc(C)cc(Nc2ccc3nnc(Cc4ccc5c(c4)OCO5)n3n2)c1` [Compound 248] has a Ki of 100 to 2000 nM.
Work on `COc1ccc(Cc2nnc3ccc(Nc4cccc(C)c4)nn23)cc1` [Compound 229] yielded a Ki of 100 to 2000 nM.
Compound `Oc1cccc(CCc2nnc3sc(Nc4cc(F)cc(F)c4)nn23)c1` [Compound 120] has a Ki of over 2000 nM.
In the case of `COc1ccc(Cc2nnc3ccc(-c4ccccc4)nn23)cc1OC` [Compound 206, 3-(3,4-dimethoxybenzyl)-6-phenyl-[1,2,4]triazolo[4,3-b]pyridazine], the Ki is reported as over 2000 nM.
Compound `COc1cccc(Nc2nn3c(Cc4ccc(O)c(OC)c4)nnc3s2)c1` [Compound 38] has a Ki of 100 to 2000 nM.
`Oc1ccc(Cc2nnc3sc(Nc4ccccc4Cl)nn23)cc1Cl` [Compound 67] showed a Ki of 100 to 2000 nM.
`CC(c1ccc(O)cc1)c1nnc2sc(Nc3cccc(F)c3)nn12` (stereo not shown) [Compound 100] was tested, and the Ki was under 100 nM.
`Oc1ccc(Cc2nnc3sc(Nc4ccc(Cl)cc4)nn23)cc1` [Compound 52] gave a Ki of under 100 nM.
Compound `CC(c1ccc(O)cc1)c1nnc2sc(C(N)=O)nn12` (stereo not shown) [Compound 88] has a Ki of over 2000 nM.
With `COc1ccc(Cc2nnc3sc(Cc4ccccc4)nn23)cc1` [Compound 21] the Ki was over 2000 nM.
`OCCc1cccc(Nc2ccc3nnc(Cc4ccc(O)c(F)c4)n3n2)c1` [Compound 265] was tested, and the Ki was 100 to 2000 nM.
For `CC(C)[C@@H](N)C(=O)Oc1ccc([C@H](C)c2nnc3sc(Nc4cccc(Cl)c4)nn23)cc1` [Compound 168], the Ki was under 100 nM.
With `CC1CCCC(Nc2ccc3nnc(Cc4ccc(O)cc4)n3n2)C1` (stereo not shown) [Compound 284] the Ki was under 100 nM.
`COc1ccc(Cc2nnc3ccc(Nc4cccc(CO)c4)nn23)cc1` [Compound 262] was tested, and the Ki was 100 to 2000 nM.
